# Reference: US12102607B2, “C5aR inhibitors for use in the treatment of chemotherapy-induced iatrogenic pain” (Dompe' Farmaceutici S.P.A., priority 2017, dated 2024)
# B1: C5a: recombinant mouse C5a, complement peptide fragment, purchased from R&D (protein, UniProt P06684 679-755, looked up)
# C5a anaphylatoxin: NLHLLRQKIEEQAAKYKHSVPKKCCYDGARVNFYETCEERVARVTIGPLCIRAFNECCTIANKIRKESPHKPVQLGR
# modifications: C5a anaphylatoxin
# notes: recombinant mouse C5a, complement peptide fragment, purchased from R&D
# Assays:
# [1] = test system: chemotherapy-induced iatrogenic pain (CIIP) in male Balb/C mice; assay: CIIP model (paclitaxel), mechanical threshold with von Frey filaments, DF2593A; assay type: in vivo
# Description: (§1) The experiments were performed in male Balb/c wild type (WT) and in C5aR deficient (C5aR^−/−) mice (6-8 weeks age). For the experiments with DF2593A, animals were housed in the animal care facility of the Ribeirao Preto Medical School, University of Sao Paulo, in plastic cages at 20° C.±1° C. with water and food ad libitum and controlled light/dark cycle. When done oral acute treatment, animals were kept without food for 2-4 hours. Animals were taken to the testing room at least 1 h before experiments and were used only once. Animal care and handling procedures were in accordance with the International Association for the Study of Pain guidelines and with the control of Animal Ethic Committee from Ribeirao Preto Medical School, protocol 120/2014.
# (§2) The protocol used was performed according POLOMANO et al., 2001, adapted to mice. The animals received paclitaxel 4 mg/kg intraperitoneally (i.p.) for four alternate days (days 1, 3, 5, and 7). During treatment period, mechanical and cold allodynia were measured 4 hours after the injection of paclitaxel.
# (§3) DF2593A was orally given in dose of 1 mg/kg at 8 and 14th days after first paclitaxel injection. The effect of drug was evaluated 2, 4, 6 and 24 hours after administration.
# (§4) DF2593A was given orally in a dose of 1 mg/kg, 12 in 12 hours, for 7 days during the induction phase of CIIP. On days 1, 3 5 and 7, the administration of DF2593A was 1 hour before paclitaxel.
# (§5) DF2593A in doses of 10, 30 or 100 μg/5 μL was injected at 8 and 14th days after the first injection of paclitaxel (CIIP).
# (§6) In DF2593A experiments, mechanical hyperalgesia was tested using von Frey filaments. Mice were placed in acrylic cages (12×10×17 cm) with wire grid floors in a quiet room 15-30 minutes before the start of testing. A crescent series of filaments were applied on right paw of CIIP mice. The lower filament able to elicit flinching movements was recorded as the mechanical threshold. The animals were tested before and after treatments and the results are expressed as log of mechanical threshold.
# [2] = test system: chemotherapy-induced iatrogenic pain (CIIP) in male Balb/C mice; assay: CIIP model (paclitaxel), cold response acetone test, DF2593A; assay type: in vivo
# Description: as §1, §2, §3, §4, §5
# In the same apparatus of von Frey test, and nearly 15 minutes after the mechanical test, was performed the acetone test. With a 1 mL syringe, one drop (50 μL) of pure acetone was released allowing the spreading of liquid for the both paw surfaces (dorsal and plantar). All movements as licking, flinching or lifting of paw were recorded with a chronometer in a total testing time of 2 minutes.
# acetylated α-Tubulin = assay: In-cell western analysis of acetylated α-Tubulin in DRG neurons; assay type: cell-based, Sprague Dawley rat; settings: for Acetylated α-Tubulin (% of UT): DRG neurons
# Description: (§7) Dorsal Root Ganglion neurons were obtained by dissociation of post natal (P2) Sprague Dawley rat ganglia (Envigo, Bresso Italy), following well-defined protocols (O'Meara et al, 2011; Owen et al, 2012). To minimize introduction of contaminating cells into the culture, any excessively long roots were trimmed from DRGs. After the isolation, DRGs were enzymatically dissociated as follows: • 20 minutes of 1.5 mg/ml papain exposure at 37° C., • 30 minutes of 4 mg/ml collagenase exposure at 37° C.
# (§8) Subsequently, cells were mechanically dissociated with a fire polished glass Pasteur pipette, in order to obtain a single cell suspension.
# (§9) Once dissociation was achieved, cells were seeded onto 96 black multiwell plates coated with Laminin (10 ug/mL, overnight at Room Temperature, RT) at selected densities. Following 1 week of incubation in DMEM high glucose medium supplemented with 10% FBS, 1× N2, 1× B27, 100 IU/mI penicillin, […] streptomycin, cells were treated according to experimental needs.
# Dorsal Root Ganglion neurons isolated as previously reported were subjected to the following experimental challenge scheme as depicted in FIG. 10.
# Paclitaxel, C5a and drugs were administered 24 hr prior the in-cell western experiment. Following 24 hr of treatment with appropriate stimuli as previously indicated, cells were washed with 1×PBS and fixed with 3,7% formaldehyde for 15 min. After the removal of fixing solution, cells were washed with 1×PBS and permeabilized with 1×PBS-0,1% Triton X-100 for 5 min at RT. Cells were then stained over night at 4° C. with the anti-acetylated α-Tubulin antibody, diluted 1:500 in Odyssey Blocking buffer, following manufacturer's protocol.
# The next day, cells were washed with 1×PBS-0.1% Tween20, and stained with the secondary antibody (diluted 1:800 in Odyssey Blocking buffer, as recommended by the protocol) and with the CellTag 700Stain […]. To lower the background, Tween20 at a final concentration of 0.2% was added to the Odyssey Blocking buffer. 96-well plates were then read at Odyssey CLx Imaging system and images acquired. Data analysis was carried out by the use of Image Studio 2.1 software.
# Paclitaxel was given to the DRG neurons following 7 days of culture at the concentration of 200 nM (Scuteri et al. 2006).
# Effect of DF3966Y in C5α-induced neuronal toxicity In order to determine whether the observed effects may be triggered also by C5a, recombinant mouse C5a 1 μg/ml (111.11 nM) was given to the DRG neurons after 7 days of culture in presence or absence of DF3966Y 1 μM.
# After 24 hr of incubation, acetylated α-Tubulin was quantified using in-cell western technique, as previously described.
# DRG neurons [3] = assay: Dendritic tree area of DRG neurons (image analysis); assay type: cell-based, Sprague Dawley rat; settings: C5a alone (Table 7), relative to UT
# Description: as §7, §8, §9
# (§10) Alpha Tubulin Acetylation DRG-derived neurons were cultured for 7 days and then treated with:
# (§11) • paclitaxel (200 nM, 500 nM, 1 μM and 5 μM, 20 μM) in presence or absence of DF3966Y (0.1, 1 and 10 μM) or DF2593A (0.1, 1 and 10 μM) • or C5a (500 ng/ml and 1 μg/ml) in presence or absence of DF3966Y (1 μM)
# (§12) After 24 hr of treatment, cells were stained by immunofluorescence.
# (§13) Cells were fixed with saccharose-paraformaldehyde then staining was performed overnight. Primary antibodies (anti—Ill Tubulin and anti-synaptotagmin 1) were diluted 1:500 in 1×PBS-4% BSA-2% Normal goat serum and 0.3% Triton x-100. The next day, cells were washed with 1×PBS-4% BSA and secondary antibodies were used diluted 1:500 in 1×PBS-4% BSA-2% Normal goat serum and 0.3% Triton x-100. After 1 hr of incubation, cells were washed with 1×PBS. Hoechst was used as a counterstain.
# (§14) Sixteen images per well were taken with ArrayScan XTI HCA Reader (Thermo Fisher Scientific) with and 40× objective. All the analysis were done with HCS Studio software
# Dendritic arborization directly influences synaptic genesis and input. A well-developed arborization indicates a functional synaptic network. For this reason, the area occupied by dendritic arborization has been quantified.
# (§15) Data are obtained as the sum of the values obtained by the analysis of sixteen fields per well for each experiment. Percentage of the values in respect to the relative mean untreated group was calculated. Mean of the percentages from 4 separate experiments was plotted in the following Tables 2-7.
# male Balb/C mice [4] = assay: Intrathecal injection of recombinant C5a, thermal threshold (Hargreaves test); assay type: in vivo; settings: higher doses, between 5 and 7 hours after injection
# Description: as §1
# (§16) Recombinant mouse C5a was given by intrathecal way, in a volume of 5 μL, and its effect follows for 1, 3, 5, 7 and 24 hours after injection.
# Hargreaves test was performed as previous described (HARGREAVES et al., 1988). The animals were habituated on a glass surface with controlled temperature, which allow the homogeneous delivery of infrared light on the paw. After the activation of the light source, a chronometer was turned on. A crescent temperature reached the paw and the chronometer was turned off as soon as the animal did a withdraw movement out the light. The time recorded was considered the heat latency. […]
# DRG neurons [5] = assay: Cells number of DRG neurons (immunofluorescence, image analysis); assay type: cell-based
# Description: as §7, §8, §9, §10, §11, §12, §13, §14
# (§17) Cells number, synapse number and dentritic arborization were evaluated in untreated cells and in cells stimulated with paclitaxel and C5a alone or in presence of the drug. As marker of chemotherapy-induced toxicity, the total number of synapses on DRG neurons was quantitative evaluated as percentage of the number of synapse with respect to untreated (UT) control.
# as §15
# DRG neurons [6] = assay: Electrophysiological recordings (whole-cell patch-clamp, current-clamp) of DRG-derived neurons; assay type: cell-based, Sprague Dawley rat; settings: 1 μg/ml C5a alone
# Description: as §7
# Dorsal Root Gangliar (DRG)-derived neurons were cultured for 7 days and then treated in blind with the following combinations: 10 nM Paclitaxel, 10 nM Paclitaxel+1 μM DF3966Y, 1 μg/ml C5a, 1 μg/ml C5a+1 μM DF3966Y.
# The compounds were administered for 1 min 30 sec (short acute stimulation) or 5 minutes (long chronic stimulation). The application of the compounds was followed by a wash-out in the physiological control solution for an equivalent time (about 10 min).
# Electrophysiological recordings were performed by the patch-clamp technique in the whole-cell configuration. The standard extracellr solution was bath applied and contained the following (mM): NaCl 135, KCl 2, CaCl2 2, MgCl2 2, hepes 10, glucose 5, pH 7.4. The standard pipet solution contained the following (mM): potassium aspartate 130, NaCl 10, MgCl2 2, CaCl2 1.3, EGTA 10, Hepes 10, pH 7.3. Recordings were acquired by the pClamp8.2 software and the MultiClamp 700A amplifier (Axon Instruments), in current-clamp mode.
# male Balb/C mice [7] = assay: Intrathecal injection of recombinant C5a, mechanical threshold (von Frey hair test); assay type: in vivo
# Description: as §1, §16, §6
# DRG neurons [8] = assay: Synapse number on DRG neurons (synaptotagmin staining, image analysis); assay type: cell-based, Sprague Dawley rat
# Description: as §7, §8, §9, §10, §11, §12, §13, §14
# For synapse count a threshold has been set, in particular all the objects, positive to synaptotagmin staining, in the range 0.365-2.457 μm^2 have been considered as synapses.
# as §17, §15
# [9] = 1 mg/kg oral, 8th and 14th day of CIIP, 2 until 6 hours after administration
# [10] = 1 mg/kg p.o. 12/12 hours for 7 days during induction phase of CIIP, 1 hour before paclitaxel
# [11] = 10, 30 or 100 μg/5 μL intrathecal, established CIIP (8 and 14th day)
molecule,measurement,setting,value
"C[C@@H](NC(=O)CCCN1CCCCC1)c1ccc(OS(=O)(=O)C(F)(F)F)cc1 [DF2593A, N-[(1R)-1-(4-trifluoromethanesulfonyloxy)phenylethyl]-4-piperidin-1-ylbutanamide]",efficacy of the lowest intrathecal dose,"[1]; 10 μg/5 μL intrathecal, 8th day",still statistically significant
same,"mechanical hypersensitivity, acute oral post treatment",[1]; [9],able to reduce the mechanical hypersensitivity
same,duration of reduction of mechanical and cold hypersensitivity after administration,"[1]; 1 mg/kg oral, established pain condition",at least 6 hours
same,"development of mechanical nociceptive response, chronic pre treatment",[1]; [10],prevents the development
same,"mechanical allodynia, intrathecal treatment",[1]; [11],improves mechanical and cold allodynia
same,effect on mechanical and cold response 24 hours after the last dose,"[1]; chronic 1 mg/kg p.o., 24 hours after the last DF2593A dose",no effect is observed
same,"cold response, acute oral post treatment",[2]; [9],is reduce after DF2593A treatment
same,"development of cold nociceptive response, chronic pre treatment",[2]; [10],prevents the development
same,"cold allodynia, intrathecal treatment",[2]; [11],improves mechanical and cold allodynia
same,Acetylated α-Tubulin (% of UT),"acetylated α-Tubulin; drug 0.1 μM under Paclitaxel 200 nM, 24 hr",107.38 % of UT
same,reversal of Paclitaxel-induced increase in acetylated α-Tubulin,"acetylated α-Tubulin; drug 0.1 μM, Paclitaxel 200 nM",not able to revert
same,Acetylated α-Tubulin (% of UT),"acetylated α-Tubulin; drug 1 μM under Paclitaxel 200 nM, 24 hr",100.67 % of UT
same,reversal of Paclitaxel-induced increase in acetylated α-Tubulin,"acetylated α-Tubulin; drug 1 μM, Paclitaxel 200 nM",reverted the Paclitaxel-induced challenge
same,Acetylated α-Tubulin (% of UT),"acetylated α-Tubulin; drug 10 μM under Paclitaxel 200 nM, 24 hr",70.72 % of UT
same,reduction in acetylated α-Tubulin with respect to control (UT) cells,"acetylated α-Tubulin; drug 10 μM, Paclitaxel 200 nM",about 25%
B1,% dendritic tree area,DRG neurons [3],102.68 ± 9.48%
same,heat latency after intrathecal C5a,male Balb/C mice [4],caused a decrease in heat latency
same,levels of acetylated α-Tubulin under C5a,"acetylated α-Tubulin; C5a 1 μg/ml alone, 24 hr",able to increase the levels of acetylated α-Tubulin
same,% of cell number,"DRG neurons [5]; C5a alone (Table 3), relative to UT",98.69 ± 4.22%
same,neuronal death,DRG neurons [5]; C5a alone or in combination with DF3966Y 1 μM,did not induce neuronal death
same,"increase of the firing rate, immediate",DRG neurons [6]; immediate,+55.61%
same,"reduction of electrical activity, longer times of exposure",DRG neurons [6]; longer times of exposure,about 70%
same,mechanical threshold after intrathecal C5a,"male Balb/C mice [7]; 100, 300 and 600 ng/5 μL intrathecal, mice, up to 24 hours after injection",promoted reduction of mechanical threshold in a dose-dependent manner
same,C5a pro-nociceptive effect in C5aR−/− mice,"male Balb/C mice [7]; intrathecal C5a, C5aR−/− mice",abrogated
same,neuronal activity damage (synapse number),DRG neurons [8]; C5a alone,did not induce neuronal activity damage
same,% of synapse number,"DRG neurons [8]; C5a alone (Table 5), relative to UT",116.90 ± 17.43%
